US20220401483A1, “COMBINATION OF A T CELL THERAPY AND (S)-3-[4-(4-MORPHOLIN-4-YLMETHYL-BENZYLOXY)-L-OXO-L,3-DIHYDRO-ISOINDOL-2-YL]-PIPERIDINE-2,6-DIONE” (Juno Therapeutics, Inc., priority 2019, published 2022)
pEC50: −log10 of the molar value.

Legend:
[1] = test system: Aiolos; assay: Intracellular Aiolos expression in stimulated anti-CD19 CAR-expressing T cells (flow cytometry MFI); format: cell-based, human
Procedure: T cell compositions containing anti-CD19 CAR-expressing T cells were generated from leukapheresis samples from three healthy human adult donors by a process including immunoaffinity-based selection of T cells (including CD4+ and CD8+ cells) from the samples, resulting in two compositions, enriched for CD8+ and CD4+ cells, respectively. The cells were incubated in the presence of (S)-3-[4-(4-morpholin-4-ylmethyl-benzyloxy)-1-oxo-1,3-dihydro-isoindol-2-yl]-piperidine-2,6-dione (Compound A) or 3-(5-amino-2-methyl-4-oxo-4H-quinazolin-3-yl)-piperidine-2,6-dione (Compound B), and expression of the transcription factors Ikaros and Aiolos was assessed. Cells of the enriched CD4+ and CD8+ compositions were separately activated with anti-CD3/anti-CD28 beads and subjected to lentiviral transduction with a vector encoding an anti-CD19 CAR. The anti-CD19 CAR contained an anti-CD19 scFv derived from a murine antibody (variable region derived from FMC63), an immunoglobulin-derived spacer, a transmembrane domain derived from CD28, a costimulatory region derived from 4-1BB, and a CD3-zeta intracellular signaling domain. The expression construct in the viral vector further contained sequences encoding a truncated receptor, which served as a surrogate marker for CAR expression, which was separated from the CAR sequence by a T2A ribosome skip sequence. Transduced populations then were separately incubated in the presence of stimulating reagents for cell expansion. Expanded CD8+ and CD4+ cells were formulated and cryopreserved separately and stored. The cryopreserved CD4+ and CD8+ anti-CD19 CAR-expressing cells from each donor were thawed, and combined at approximately a 1:1 CAR+CD4+:CD8+ ratio prior to use. Approximately 2.5×10^5 cells of the generated CAR+ T cell composition were stimulated overnight with 1 μg/ml of a CAR-specific anti-idiotypic antibody in the presence of 3-(5-amino-2-methyl-4-oxo-4H-quinazolin-3-yl)-piperidine-2,6-dione (Compound B) or (S)-3-[4-(4-morpholin-4-ylmethyl-benzyloxy)-1-oxo-1,3-dihydro-isoindol-2-yl]-piperidine-2,6-dione (Compound A) at concentrations ranging from 10 to 10000 nM or a vehicle control overnight at 37° C., 5% C02. Following overnight incubation, anti-CD19 CAR-expressing T cells were stained with antibodies and analyzed by flow cytometry to assess intracellular levels of Ikaros and Aiolos in CD4+ CAR+ or CD8+ CAR+ cells, as measured by median fluorescence intensity (MFI). Median fluorescence intensity (MFI) values for Ikaros and Aiolos were normalized and calculated as a percentage relative to vehicle control. […] The EC50 for reducing Aiolos and Ikaros expression was calculated as determined from the concentration of the inhibitor that reduced Aiolos or Ikaros MFI to 50% of its maximal MFI in the absence of the inhibitor.

[2] = test system: Ikaros; assay: Ikaros expression in chronically stimulated CAR T cells with concurrent treatment; format: cell-based, human; conditions: 100 nM
Procedure: (§1) Anti-CD19 CAR-expressing T cells were produced substantially as described in Example 1. To subject cells to chronic stimulation conditions, the CAR+ T cells were stimulated with 30 μg/mL plate-bound anti-idiotypic (anti-ID) antibody (see e.g. WO2018/023100) for 6 days in the presence of (S)-3-[4-(4-morpholin-4-ylmethyl-benzyloxy)-1-oxo-1,3-dihydro-isoindol-2-yl]-piperidine-2,6-dione (Compound A) or a vehicle control, to induce chronic stimulation. […] Cells were assessed at various times for cytolytic function, CAR T cell number and cytokine production.
After the long-term, chronic stimulation with concurrent treatment with Compound A, CAR T cells were assessed for Ikaros expression or for CAR T function following rechallenge with CD19-expressing target cells.
Expression of Ikaros in CAR T cells that had been subjected to chronic stimulation in the presence of Compound A (1 nM, 10 nM or 100 nM) was measured by intracellular flow cytometry analysis using an antibody to Ikaros.

[3] = test system: Raji or Granta-519 lymphoma cells; assay: Cytolytic assay of CAR T cells treated 3 days, Raji or Granta-519 target cells; format: cell-based, human; conditions: 1 nM, 10 nM or 100 nM, 3 days treatment
Procedure: After 3 days of treatment with Compound A, anti-CD19 CAR T cells were co-cultured with Raji or Granta-519 lymphoma cells using a cytolytic assay. To assess cytolytic activity, the target cells were labeled with NucLight Red (NLR) to permit tracking by fluorescent microscopy. Killing activity was assessed by measuring the loss of viable target cells over 200 hours, as determined by loss of fluorescent signal over time by kinetic fluorescence microscopy (using the INCUCYTE® Live Cell Analysis System, Essen Bioscience). Tumor cell numbers were normalized to time zero and measured over time (mean±SEM).
FIG. 7B depicts the tumor cell numbers of anti-CD19 CAR T cells treated with 1 nM, 10 nM, or 100 nM Compound A as compared with vehicle control (no Compound A) and tumor only.

[4] = test system: RL CD19+ tumor cells; assay: Acute cytolytic activity, anti-CD19 CAR T cells co-cultured with RL CD19+ tumor cells; format: cell-based, human
Procedure: Anti-CD19 CAR T cells were co-cultured with RL CD19+ tumor cells at an effector to target (E:T) ratio of 1:1, in the presence of (S)-3-[4-(4-morpholin-4-ylmethyl-benzyloxy)-1-oxo-1,3-dihydro-isoindol-2-yl]-piperidine-2,6-dione (Compound A) (0.001 μM, 0.01 μM or 0.1 μM). Acute cytolytic activity was measured by tumor cell number over time. […] Co-culture of CAR T cells with RL resistant tumor cells in the presence of Compound A improved cytolytic CAR T cell function, […]

[5] = test system: K562.CD19, Raji, Granta-519 cells; assay: Cytolytic activity of CAR T cells after chronic stimulation with concurrent treatment, rechallenge with CD19+ tumor cells; format: cell-based, human; conditions: 0.001 μM or 0.01 μM, E:T 1:1, vs control
Procedure: as §1, with “stimulation. After the 6-day culture period, the anti-CD19 CAR-expressing T cells were removed from culture and incubated with K562 cells transduced with CD19 (K562.CD19), Raji tumor cells, and Granta-519 tumor cells (to rechallenge the CAR-T cells) at an effector to target ratio of 2.5:1 unless otherwise indicated, in the presence of Compound A, at concentrations ranging from 0.001 μM to 10 μM, or vehicle control for up to 10 days.” for “stimulation.”
CAR T cells that had been stimulated for 6 days with anti-ID concurrently in the presence of Compound A (0.001 μM or 0.01 μM) were washed free of compound and co-cultured with CD19+ tumor cells at an effector to target (E:T) ratio of 1:1 in the absence of Compound A. The assessed CD19+ tumor cells included K562 cells transduced with CD19 (K562.CD19), Raji cells, or Granta-519 cells.

[6] = Cmax in healthy subjects; conditions: human, in vivo, doses of 0.3 mg and 1.0 mg

O=C1CC[C@H](N2Cc3c(OCc4ccc(CN5CCOCC5)cc4)cccc3C2=O)C(=O)N1 [Compound A, (S)-3-[4-(4-morpholin-4-ylmethyl-benzyloxy)-1-oxo-1,3-dihydro-isoindol-2-yl]-piperidine-2,6-dione]
intracellular Aiolos expression ([1]; 10 to 10000 nM, overnight): concentration dependent decrease
potency relative to Compound B in degradation of Ikaros and Aiolos ([1]; CAR-expressing T cells): 10-20 fold
pEC50 ([1]; overnight incubation, 1 μg/ml anti-idiotypic antibody, average of donors (range, 95% confidence interval)): 8.60
Ikaros expression in chronically stimulated cells [2]: reduction of Ikaros expression was maintained
cytolytic activity against target cells [3]: improved
sensitivity of RL tumor cell line to monotherapy ([4]; 0.01 μM or 0.1 μM): sensitive
cytolytic CAR T cell function against RL tumor cells ([4]; co-culture, E:T 1:1, 0.001, 0.01 or 0.1 μM): improved
cytolytic activity (tumor cell number over time) [5]: improved
Cmax [6]: 2.41 to 11.8 nM
